Measured values published in US20190315806A1, “POLYMYXIN DERIVATIVE, PREPARATION METHOD AND APPLICATION THEREOF” (priority 2016, published 2019).
≈ marks a conversion by molar mass, not a printed value. Where a SMILES comes first, the peptide text is derived from it. Bridges are numbered along the chain shown (N, C = ends). [ ]: non-standard residue; d: D form. The star is where a group is joined. dPhe(4-tBu) = CC(C)(C)c1ccc(C[C@@H](N)C(=O)O)cc1; dPhe(4-CF3) = N[C@H](Cc1ccc(C(F)(F)F)cc1)C(=O)O; dPhe(4-Cl) = N[C@H](Cc1ccc(Cl)cc1)C(=O)O; dPhe(4-Me) = Cc1ccc(C[C@@H](N)C(=O)O)cc1; Heptanoyl(6-Me) = CC(C)CCCCC(=O)*; X7 = Cc1ccc(Oc2ccc(C(=O)*)cc2)cc1; X2 = CC[C@H](C)CCCCC(=O)*; Octanoyl = CCCCCCCC(=O)*; X5 = CCCCCCCC(=O)CC(=O)*; Dab = NCC[C@H](N)C(=O)O; Nva = CCC[C@H](N)C(=O)O; X8 = CN(C)CCCCC(=O)*

What was measured:
Type in all cases: cell-based
[1] = test system: Klebsiella pneumoniae ATCC BAA-2146 (NDM-1); test: Antibacterial activity, MIC by dish double dilution method
Experimental: (§1) The minimum inhibitory concentration (MIC) was determined by means of dish double dilution method using a Multipoint inoculator according to the CLSI recommended method. The compounds of the present invention (for example, the compounds prepared in the Embodiments) and the reference substances were diluted twice each time with the broth into various desired concentrations, and appropriate amounts were added to the dishes. Agar medium is melted, and then quantitatively injected into the dish containing the drug solution, and mixed. The final concentrations of the compounds of the invention (e.g., the compounds prepared in the Embodiments) and the controls were 0.03, 0.06, 0.125, 0.25 . . . 128 μg/mL, respectively. The test bacteria were cultured overnight with nutrient broth, brain heart infusion or HTM broth. During the tests, the bacterial solutions were diluted appropriately, and the test bacteria (inoculation amount 10^4 CFU/dot) were inoculated on the surface of the drug-containing agar by a multi-point inoculator. After drying, the bacterial was incubated for 18 to 24 hours at 35° C., the results were observed, the minimum concentrations of the compounds of the present invention (for example, the compounds prepared in the Embodiments) and the controls contained in the dishes with no growth of colonies were MICs.
(§2) The strains used in the antibacterial activity experiments were from the American Type Culture Collection (ATCC) and clinical isolates.
(§3) The strains used for the experiments on antibacterial activity included Escherichia coli ATCC 25922, Klebsiella pneumoniae ATCC BAA-2146 (NDM-1), Pseudomonas aeruginosa ATCC 27853, Acinetobacter baumannii ATCC 19606 and Staphylococcus epidermidis ATCC 12228.
(§4) Tested samples: polymyxin derivatives prepared according to the technical scheme of the present invention;
(§5) Controls: polymyxin B sulfate and colistin (polymyxin E sulfate).

[2] = test system: Escherichia coli ATCC 25922; conditions: ATCC 25922
Experimental: as §1, §2, §3, §4, §5

[3] = test system: Acinetobacter baumannii ATCC 19606; conditions: ATCC 19606
Experimental: as §1, §2, §3, §4, §5

[4] = test system: Pseudomonas aeruginosa ATCC 27853; conditions: ATCC 27853
Experimental: as §1, §2, §3, §4, §5

[5] = test system: Staphylococcus epidermidis ATCC 12228; conditions: ATCC 12228
Experimental: as §1, §2, §3, §4, §5

Row | Structure (SMILES) | MIC K. pneumoniae ATCC BAA-2146 (NDM-1) ([1]; agar dilution, 10^4 CFU/dot, 18 to 24 hours at 35° C.) | MIC E. coli ATCC 25922 [2] | MIC A. baumannii ATCC 19606 [3] | MIC P. aeruginosa ATCC 27853 [4] | MIC S. epidermidis ATCC 12228 [5] | MIC K. pneumoniae ATCC BAA-2146 (NDM-1) ([1]; ATCC BAA-2146)
1 | CC(C)CCCCC(=O)N[C@@H](CCN)C(=O)N[C@H](C(=O)N[C@@H](CCN)C(=O)N[C@H]1CCNC(=O)[C@H]([C@@H](C)O)NC(=O)[C@H](CCN)NC(=O)[C@H](CCN)NC(=O)[C@H](CC(C)C)NC(=O)[C@@H](CC(C)C)NC(=O)[C@H](CCN)NC1=O)[C@@H](C)O [Compound 74, 6-methylheptanoyl-Dab-Thr-Dab-ring(4-10)[Dab-Dab-D-Leu-Leu-Dab-Dab-Thr]] ({Heptanoyl(6-Me)}-[Dab]T[Dab][Dab][Dab][dL]L[Dab][Dab]T; lactam 4-C) | 1 µg/mL (≈ 0.865 µM) | 0.5 µg/mL (≈ 0.433 µM) | 0.5 µg/mL (≈ 0.433 µM) | 2 µg/mL (≈ 1.73 µM) | 64 µg/mL (≈ 55.4 µM) | –
2 | CC[C@H](C)CCCCC(=O)N[C@@H](CCN)C(=O)N[C@H](C(=O)N[C@@H](CCN)C(=O)N[C@H]1CCNC(=O)[C@H]([C@@H](C)O)NC(=O)[C@H](CCN)NC(=O)[C@H](CCN)NC(=O)[C@H](CC(C)C)NC(=O)[C@@H](Cc2ccc(C(C)(C)C)cc2)NC(=O)[C@H](CCN)NC1=O)[C@@H](C)O [Compound 27, (S)-6-methyloctanoyl-Dab-Thr-Dab-ring(4-10)[Dab-Dab-D-Phe(4-tBu)-Lue-Dab-Dab-Thr]] (X2-[Dab]T[Dab][Dab][Dab][dPhe(4-tBu)]L[Dab][Dab]T; lactam 4-C) | – | 2 µg/mL (≈ 1.59 µM) | 8 µg/mL (≈ 6.35 µM) | 4 µg/mL (≈ 3.18 µM) | 8 µg/mL (≈ 6.35 µM) | 4 µg/mL (≈ 3.18 µM)
3 | CC[C@H](C)CCCCC(=O)N[C@@H](CCN)C(=O)N[C@H](C(=O)N[C@@H](CCN)C(=O)N[C@H]1CCNC(=O)[C@H]([C@@H](C)O)NC(=O)[C@H](CCN)NC(=O)[C@H](CCN)NC(=O)[C@H](CC(C)C)NC(=O)[C@@H](Cc2ccc(C)cc2)NC(=O)[C@H](CCN)NC1=O)[C@@H](C)O [Compound 26, (S)-6-methyloctanoyl-Dab-Thr-Dab-ring(4-10)[Dab-Dab-D-Phe(4-CH3)-Lue-Dab-Dab-Thr]] (X2-[Dab]T[Dab][Dab][Dab][dPhe(4-Me)]L[Dab][Dab]T; lactam 4-C) | – | 1 µg/mL (≈ 0.821 µM) | 0.5 µg/mL (≈ 0.411 µM) | 2 µg/mL (≈ 1.64 µM) | 8 µg/mL (≈ 6.57 µM) | 2 µg/mL (≈ 1.64 µM)
4 | CCCCCCCC(=O)CC(=O)N[C@@H](CCN)C(=O)N[C@H](C(=O)N[C@@H](CCN)C(=O)N[C@H]1CCNC(=O)[C@H]([C@@H](C)O)NC(=O)[C@H](CCN)NC(=O)[C@H](CCN)NC(=O)[C@H](CC(C)C)NC(=O)[C@@H](Cc2ccccc2)NC(=O)[C@H](CCN)NC1=O)[C@@H](C)O [Compound 7, 3-oxodecanoyl-Dab-Thr-Dab-ring(4-10)[Dab-Dab-D-Phe-Lue-Dab-Dab-Thr]] (X5-[Dab]T[Dab][Dab][Dab][dF]L[Dab][Dab]T; lactam 4-C) | – | 2 µg/mL (≈ 1.62 µM) | 2 µg/mL (≈ 1.62 µM) | 4 µg/mL (≈ 3.25 µM) | 32 µg/mL (≈ 26 µM) | 2 µg/mL (≈ 1.62 µM)
5 | CC[C@H](C)CCCCC(=O)N[C@@H](CCN)C(=O)N[C@H](C(=O)N[C@@H](CCN)C(=O)N[C@H]1CCNC(=O)[C@H]([C@@H](C)O)NC(=O)[C@H](CCN)NC(=O)[C@H](CCN)NC(=O)[C@H](CC(C)C)NC(=O)[C@@H](Cc2ccc(C(F)(F)F)cc2)NC(=O)[C@H](CCN)NC1=O)[C@@H](C)O [Compound 23, (S)-6-methyloctanoyl-Dab-Thr-Dab-ring(4-10)[Dab-Dab-D-Phe(4-CF3)-Lue-Dab-Dab-Thr]] (X2-[Dab]T[Dab][Dab][Dab][dPhe(4-CF3)]L[Dab][Dab]T; lactam 4-C) | – | 1 µg/mL (≈ 0.786 µM) | 1 µg/mL (≈ 0.786 µM) | 2 µg/mL (≈ 1.57 µM) | 8 µg/mL (≈ 6.29 µM) | 2 µg/mL (≈ 1.57 µM)
6 | CC[C@H](C)CCCCC(=O)N[C@@H](CCN)C(=O)N[C@H](C(=O)N[C@@H](CCN)C(=O)N[C@H]1CCNC(=O)[C@H]([C@@H](C)O)NC(=O)[C@H](CCN)NC(=O)[C@H](CCN)NC(=O)[C@H](CC(C)C)NC(=O)[C@@H](Cc2ccc(Cl)cc2)NC(=O)[C@H](CCN)NC1=O)[C@@H](C)O [Compound 16, (S)-6-methyloctanoyl-Dab-Thr-Dab-ring(4-10)[Dab-Dab-D-Phe(4-Cl)-Lue-Dab-Dab-Thr]] (X2-[Dab]T[Dab][Dab][Dab][dPhe(4-Cl)]L[Dab][Dab]T; lactam 4-C) | – | 1 µg/mL (≈ 0.808 µM) | 1 µg/mL (≈ 0.808 µM) | 2 µg/mL (≈ 1.62 µM) | 16 µg/mL (≈ 12.9 µM) | 2 µg/mL (≈ 1.62 µM)
7 | Cc1ccc(Oc2ccc(C(=O)N[C@@H](CCN)C(=O)N[C@H](C(=O)N[C@@H](CCN)C(=O)N[C@H]3CCNC(=O)[C@H]([C@@H](C)O)NC(=O)[C@H](CCN)NC(=O)[C@H](CCN)NC(=O)[C@H](CC(C)C)NC(=O)[C@@H](Cc4ccccc4)NC(=O)[C@H](CCN)NC3=O)[C@@H](C)O)cc2)cc1 [Compound 9, 4-(p-methylphenoxy)benzoyl-Dab-Thr-Dab-ring(4-10)[Dab-Dab-D-Phe-Lue-Dab-Dab-Thr]] (X7-[Dab]T[Dab][Dab][Dab][dF]L[Dab][Dab]T; lactam 4-C) | – | 4 µg/mL (≈ 3.14 µM) | 4 µg/mL (≈ 3.14 µM) | 4 µg/mL (≈ 3.14 µM) | 8 µg/mL (≈ 6.28 µM) | 4 µg/mL (≈ 3.14 µM)
8 | CCCCCCCC(=O)N[C@@H](CCN)C(=O)N[C@H](C(=O)N[C@@H](CCN)C(=O)N[C@H]1CCNC(=O)[C@H]([C@@H](C)O)NC(=O)[C@H](CCN)NC(=O)[C@H](CCN)NC(=O)[C@H](C(C)C)NC(=O)[C@@H](CC(C)C)NC(=O)[C@H](CCN)NC1=O)[C@@H](C)O [Compound 80, octanoyl-Dab-Thr-Dab-ring(4-10)[Dab-Dab-D-Leu-Val-Dab-Dab-Thr]] (Octanoyl-[Dab]T[Dab][Dab][Dab][dL]V[Dab][Dab]T; lactam 4-C) | – | 0.5 µg/mL (≈ 0.438 µM) | 1 µg/mL (≈ 0.876 µM) | 1 µg/mL (≈ 0.876 µM) | >128 µg/mL | 0.5 µg/mL (≈ 0.438 µM)
9 | CC(C)C[C@@H]1NC(=O)[C@@H](Cc2ccccc2)NC(=O)[C@H](CCN)NC(=O)[C@@H](NC(=O)[C@H](CCN)NC(=O)[C@@H](NC(=O)[C@H](CCN)NC(=O)CCCCN(C)C)[C@@H](C)O)CCNC(=O)[C@H]([C@@H](C)O)NC(=O)[C@H](CCN)NC(=O)[C@H](CCN)NC1=O [Compound 2, N,N-dimethylaminovaleryl-Dab-Thr-Dab-ring(4-10)[Dab-Dab-D-Phe-Lue-Dab-Dab-Thr]] (X8-[Dab]T[Dab][Dab][Dab][dF]L[Dab][Dab]T; lactam 4-C) | – | 16 µg/mL (≈ 13.4 µM) | 8 µg/mL (≈ 6.72 µM) | 1 µg/mL (≈ 0.84 µM) | >128 µg/mL | 128 µg/mL (≈ 108 µM)
10 | CCCCCCCC(=O)N[C@@H](CCN)C(=O)N[C@H](C(=O)N[C@@H](CCN)C(=O)N[C@H]1CCNC(=O)[C@H]([C@@H](C)O)NC(=O)[C@H](CCN)NC(=O)[C@H](CCN)NC(=O)[C@H](CCC)NC(=O)[C@@H](CC(C)C)NC(=O)[C@H](CCN)NC1=O)[C@@H](C)O [Compound 81, octanoyl-Dab-Thr-Dab-ring(4-10)[Dab-Dab-D-Leu-Nva-Dab-Dab-Thr]] (Octanoyl-[Dab]T[Dab][Dab][Dab][dL][Nva][Dab][Dab]T; lactam 4-C) | – | 0.5 µg/mL (≈ 0.438 µM) | 1 µg/mL (≈ 0.876 µM) | 1 µg/mL (≈ 0.876 µM) | >128 µg/mL | 1 µg/mL (≈ 0.876 µM)
